Data: PMC6220303 (EMBO Molecular Medicine, 2018)

Columns and labels:
[1] = tested on: healthy participants; assay: Safety and tolerability in early clinical studies; assay type: in vivo, human; details: for dose up to which no dose-limiting safety or tolerability findings were observed: participants ≥ 60 years
Protocol: Only the single ascending dose studies were performed in adults 18–55 or 20–45 years of age, whereas the participants in all subsequent single and multiple dose studies were cognitively normal male and post‐menopausal female subjects ≥ 60 years of age, similar to the age range of our target population in the Generation Program.
For further details, see the Appendix Table S10 in Appendix and the accompanying clinical protocols synopsis (Appendix Table S11).

[2] = tested on: C57/BL6 mice; assay: Hair depigmentation study, 8 weeks dosing; assay type: in vivo, mouse
Protocol: Compounds were either mixed in feed or given as a suspension orally. […] Vehicle or compounds were given orally in a volume of 10 ml/kg once daily (mornings) for 8 weeks. Vehicle: 0.1% Tween‐80 in 0.5% methylcellulose in water. […] The vehicle group was treated with food pellets containing no compound. The β1 antibody was dosed 0.5 mg/kg body weight, once weekly intraperitoneally, diluted in 90 nM NaCl, 50 nM Tris pH 7.1.

[3] = tested on: Aβ40 in APOE4‐TR mouse forebrain; assay: Forebrain Aβ40 in APOE4-TR mice; assay type: in vivo; details: highest dose of 17 mg/kg (30 μmol/kg), 4 h after dosing
Protocol: Data were analyzed with one way ANOVA and Dunnett's multiple comparison test. • B Distribution of APOE4 genotypes in the Phase IIa study versus their baseline Aβ42/40 ratios. The dashed line at Aβ42/40 ratio of 0.09 represents a cutoff, which separates a normal ratio from an abnormally low ratio. • C Comparison of CSF Aβ40 reduction in APOE4 non‐carriers and APOE4 carriers (mean ± SD). • D Comparison of CSFAβ40 reduction in participants with Aβ42/40 ≥ 0.09 and Aβ42/40 < 0.09 (mean ± SD). • E Comparison of Aβ42/40 ratio at baseline and at day 91 for all participants in the placebo, 35 mg, and 85‐mg dose group (mean ± SD, n = 25/group). • F Change of Aβ42/40 ratio for all participants with Aβ42/40 ≤ 0.09 at baseline; bars represent mean ± SD. […] Data were analyzed with one way ANOVA and Dunnett's multiple comparison test. […]
Electrochemiluminescence immunoassays (Mesoscale Diagnostics, Rockville, MD, USA) were used to determine Aβ38, Aβ40, Aβ42, sAPPα, and sAPPβ. For studies in normal mice and rats, the endogenous Aβ40 was extracted from the brain homogenate with 1% Triton X‐100, and the 4G8‐based assay kit was used for quantification according to the manufacturer's instructions. CSF was collected from the cisterna magna and also analyzed using the 4G8 kit. […] For studies in APP23 mice, Aβ40 and Aβ42 were determined after extraction with 70% formic acid and subsequent neutralization.

[4] = tested on: APP23‐transgenic mice; assay: Chronic treatment of APP23-transgenic mice, 6 months in food; assay type: in vivo, mouse
Protocol: The total amount of Aβ40 and Aβ42 in formic acid‐solubilized forebrain was determined by Aβ immunoassay. […] Next, we investigated the effects of long‐term Aβ reduction on downstream pathology relevant for Alzheimer's disease, in particular neuroinflammation. Specifically, we used double‐immunofluorescence staining with NT12+anti‐Iba1 and NT12+anti‐GFAP to examine the number and localization of microglia and activated astrocytes, respectively (Fig 4E). […] The reason for the different sensitivity of microglia and astrocytes distant to plaques is currently not clear.
Electrochemiluminescence immunoassays (Mesoscale Diagnostics, Rockville, MD, USA) were used to determine Aβ38, Aβ40, Aβ42, sAPPα, and sAPPβ. For studies in normal mice and rats, the endogenous Aβ40 was extracted from the brain homogenate with 1% Triton X‐100, and the 4G8‐based assay kit was used for quantification according to the manufacturer's instructions. CSF was collected from the cisterna magna and also analyzed using the 4G8 kit. For studies in dogs, CSF was collected via a ventricular port, and the 6E10‐based Mesoscale Diagnostics kit for Aβ was used. For studies in APP23 mice, Aβ40 and Aβ42 were determined after extraction with 70% formic acid and subsequent neutralization.
Amyloid plaques were stained using the Novartis-internal rabbit anti-Aβ antibody NT12, which recognizes all forms of Aβ (Neumann et al, 2015). Activated astrocytes were detected using a commercial rabbit anti-GFAP (Z0334, Dako Schweiz GmbH, Baar, Switzerland, dilution 1:2000 in antibody diluent). Microglia cells were detected using a rabbit anti-Iba1 antibody (019-19741, Wako Chemicals GmbH, Neuss, Germany, dilution 1:200 in antibody diluent). All stainings were performed using the fully automated instrument Ventana Discovery® Ultra (Roche Diagnostics Schweiz AG, Rotkreuz, Switzerland). All chemicals were provided by Roche Diagnostic. Paraffin-embedded brain tissue sections of 3 µm were freshly cut and collected on SuperFrost+ slides. The tissues sections were de-paraffinized and rehydrated under solvent-free conditions (EZprep solution) followed by antigen retrieval (demasking) performed by heat retrieval cycles for 32 min in EDTA-based buffer (CC1 solution). Subsequently, slides were blocked for 4 min using the DISC Inhibitor RUO (reference 07017944001). The primary antibody anti-NT12 diluted at 1:20 000 in antibody diluent was manually added to tissue sections and incubated for 1h at room temperature. A short post-fixation (glutaraldehyde at 0.05%) was done before applying the […]
Detection was performed using the DISCOVERY FITC® following the manufacturer’s recommendations. Slides were then heat denaturated at 92°C for 20 min before a manual application of the second primary antibody (anti-GFAP diluted at 1:2000, anti-Iba1 diluted at 1:200) and incubated for 1h at room temperature. Sections were then incubated for 20 min at room temperature with UltraMap-anti-Rabbit HRP antibody, and the DISCOVERY Rhodamine kit […]
The slides were washed and mounted using Prolong® Gold antifade reagent (P36931, ThermoFisher, Switzerland) and further scanned with the Hamamatsu slide scanner instrument […]
(NanoZoomer 2.0 HT, scanning software NDP-Scan Version 2.5, Hamamatsu Photonics France, Swiss Office, Solothurn, Switzerland) at the 40x objective. The scanning settings were as follow: the exposure time with the DAPI filter was set at 57 ms, as was the FITC filter. The exposure time for the TRITC filter (detection of Rhodamine) was set at 14.2 ms.
For the quantitative plaque and blood vessel-associated Aβ evaluation based on image analysis, a proprietary image analysis platform (ASTORIA, Automated Stored Image Analysis) was developed based on MS Visual Studio 2010 and many functions from Matrox MIL V9 libraries (Matrox Inc, Quebec, Canada).
For the Aβ plaque, neuroinflammation and blood vessel analyses, the following sequence of steps was performed. (1) Slides were scanned with Hamamatsu Nanozoomer at 40x […]
magnification. […]

C[C@@]1(c2nc(NC(=O)c3ncc(C(F)(F)F)cc3Cl)ccc2F)CO[C@@](C)(C(F)(F)F)C(N)=N1 [CNP520]
skin-related AEs, mostly driven by pruritus ([1]; 3-month study, 4% for placebo): 18%
abuse potential ([1]; clinical studies): no signal for abuse potential
dose up to which no dose-limiting safety or tolerability findings were observed ([1]; for 2 weeks (maximum multiple dose tested)): ≤ 300 mg
dose up to which no dose-limiting safety or tolerability findings were observed ([1]; for 3 months): up to 85 mg
dose up to which no dose-limiting safety or tolerability findings were observed ([1]; single dose): up to 750 mg
changes in other pigmented organs (hair follicle, choroid, retina pigmented epithelium) by histopathology ([2]; C57/BL6 mice, 8 weeks): Neither did we observe any changes in other pigmented organs
Aβ40 reduction in the brain ([2]; at doses with no change in hair color): more than 90%
hair depigmentation / change in hair color ([2]; male C57/BL6 mice, 8 weeks oral once daily): No change in hair color
reduction in Aβ40 [3]: 77%
CNP520 concentration in blood and brain at end of study ([4]; 4 and 40 mg/kg/day in food): approximately dose‐proportional
total Aβ-plaque area in the cortex (normalized to sample area) compared with vehicle ([4]; 4 and 40 mg/kg/day in food, 6 months, dose-dependent): decreased
sAPPα in mouse brain ([4]; 6 months): increased
increase in GFAP-stained astrocytes ([4]; 6 months, dose-dependent): prevented this increase
sAPPβ in mouse brain ([4]; 6 months, dose-dependent): decreased
formic acid-soluble Aβ40 and Aβ42 in forebrain compared with vehicle ([4]; high dose 40 mg/kg/day, 6 months): profoundly reduced
effect on CAA (vascular Aβ) in APP23 mice ([4]; separate study, first data, authors' response in review file): reduction of vascular Aβ
